Data reported in paper PMC5979531, “Structural Requirements of Alkylglyceryl-L-Ascorbic Acid Derivatives for Melanogenesis Inhibitory Activity” (International Journal of Molecular Sciences, 2018).

Key:
B16 melanoma 4A5 cells = experiment: Theophylline-stimulated melanogenesis inhibition (melanin content); assay type: cell-based, murine; settings: for IC50: theophylline (1 mM)-stimulated B16 melanoma 4A5 cells
Protocol: (§1) The effects on theophylline-stimulated melanogenesis and viability of B16 melanoma 4A5 cells were examined according to previously described protocols. Briefly, murine B16 melanoma 4A5 cells were seeded into 48-well plates in DMEM. After 24 h of culture, a test compound and theophylline (1 mM) were added and incubated for 72 h. The melanin content and cell viability were then measured. IC50 values were determined graphically.
Inhibition (%) was calculated using the following formula, where A and B indicate the optical density of the vehicle- and test compound-treated groups, respectively, and C indicates cell viability (%) (see below): Inhibition (%) = [(A − B)/A]/(C/100) × 100.

[1] = Stability in aqueous solution at elevated temperature (HPLC residual ratio); assay type: physicochemical; settings: 20 mg/mL at 125 °C in the dark, after 3 h
Protocol: To determine stability, the samples were stored at 125 °C, and the residual ratio was calculated by measuring the remaining compound by HPLC. HPLC mobile phase conditions were as follows: AsA was described previously, 6 and 20 were 40% methanol containing 0.1% formic acid at flow rate of 0.2 mL/min [52, 53].

[2] = Cell viability of B16 melanoma 4A5 cells; assay type: cell-based, murine; settings: mouse, B16 4A5 cells
Protocol: as §1

TRP-2 mRNA = experiment: Expression of TRP-2 mRNA (qRT-PCR); assay type: cell-based, murine; settings: B16 4A5 cells, theophylline 1 mM, 72 h
Protocol: (§2) The expression of tyrosinase, TRP-1, and TRP-2 mRNA was assessed according to previously reported methods. Briefly, murine B16 melanoma 4A5 cells were seeded into 96-well plates in DMEM. After 24 h of culture, a test compound and theophylline (1 mM) were added and incubated for 72 h. Then, the amount of each mRNA was quantified by quantitative reverse transcription PCR.

tyrosinase mRNA = experiment: Expression of tyrosinase mRNA (qRT-PCR); assay type: cell-based, murine; settings: B16 4A5 cells, theophylline 1 mM, 72 h
Protocol: as §2

TRP-1 mRNA = experiment: Expression of TRP-1 mRNA (qRT-PCR); assay type: cell-based, murine; settings: B16 4A5 cells, theophylline 1 mM, 72 h
Protocol: as §2

tyrosinase from mushroom = experiment: Mushroom tyrosinase activity; assay type: biochemical
Protocol: Tyrosinase activities using L-tyrosine or L-DOPA as a substrate were determined according to the protocols described previously. Briefly, samples, L-tyrosine (2.5 mM, or L-DOPA, 3.0 mM), mushroom tyrosinase (46 units/mL), and phosphate buffer were mixed in a 96-well plate and incubated at 25 °C. (L-tyrosine; 30 min, L-DOPA; 5 min). The absorbance was then measured at 492 nm.

tyrosinase protein = experiment: Expression of tyrosinase protein (western blotting); assay type: cell-based, murine; settings: B16 4A5 cells, theophylline 1 mM, 72 h
Protocol: The expression of tyrosinase protein was assessed according to a previously reported method. Briefly, murine B16 melanoma 4A5 cells were seeded into 6-well plates in DMEM. After 24 h of culture, a test compound and theophylline (1 mM) were added and incubated for 72 h. The expression of tyrosinase protein then was measured by western blotting.

[3] = Mus musculus, theophylline-stimulated B16 4A5 cells, 72 h

## O=C1O[C@H]([C@@H](O)CO)C(O)=C1O [AsA, L-ascorbic acid]
B16 melanoma 4A5 cells; [3]
  inhibition at 1000 µM: -17.4 ± 4%
  inhibition at 3000 µM: 3.8 ± 4.7%
B16 melanoma 4A5 cells; Mus musculus, 72 h
  IC50: > 3000 µM
[1]
  Residual ratio in aqueous solution: 9%
[2]
  viability at 72 h, 1000 µM: 104%
  viability at 72 h, 3000 µM: 89.2%

## CCCCCCCCCCCCCCOC1=C(OCC(O)CO)[C@@H]([C@@H](O)CO)OC1=O (stereo partly shown) [compound 14, 3-O-(2,3-dihydroxypropyl)-2-O-tetradecyl-AsA]
B16 melanoma 4A5 cells; [3]
  inhibition at 3 µM: 6.3 ± 2.6%
  inhibition at 10 µM: 48.4 ± 2.2%
  inhibition at 30 µM: 97.6 ± 1.8%
  inhibition at 100 µM: 100 ± 18.2%
B16 melanoma 4A5 cells; Mus musculus, 72 h
  IC50: 11.1 µM
TRP-2 mRNA; 3 µM
  TRP-2 mRNA/β-actin mRNA: 0.58 ± 0.06
Tyrosinase mRNA; 3 µM
  Tyrosinase mRNA/β-actin mRNA: 0.78 ± 0.10
[2]
  viability at 72 h, 3 µM: 101%
  viability at 72 h, 10 µM: 89.1%
  viability at 72 h, 30 µM: 56.3%
  viability at 72 h, 100 µM: 21%
TRP-1 mRNA; 3 µM
  TRP-1 mRNA/β-actin mRNA: 1.02 ± 0.27
TRP-1 mRNA; 10 µM
  TRP-1 mRNA/β-actin mRNA: 0.92 ± 0.22
Tyrosinase from mushroom; Substrate: L-DOPA, 10 µM
  Inhibition (%) of mushroom tyrosinase: −8.9 ± 3.5%
Tyrosinase from mushroom; Substrate: L-DOPA, 30 µM
  Inhibition (%) of mushroom tyrosinase: −8.2 ± 4.3%
Tyrosinase from mushroom; Substrate: L-Tyrosine, 10 µM
  Inhibition (%) of mushroom tyrosinase: −7.0 ± 6.7%
Tyrosinase from mushroom; Substrate: L-Tyrosine, 30 µM
  Inhibition (%) of mushroom tyrosinase: −9.7 ± 2.7%

## CCCCCCOC1=C(OCC(O)CO)C(=O)O[C@@H]1[C@@H](O)CO (stereo partly shown) [compound 20, 2-O-(2,3-dihydroxypropyl)-3-O-hexyl-AsA]
B16 melanoma 4A5 cells; [3]
  inhibition at 100 µM: 43.5 ± 2.6%
  inhibition at 1000 µM: 94.9 ± 1.5%
  inhibition at 3000 µM: 80.9 ± 4.1%
B16 melanoma 4A5 cells; Mus musculus, 300 µM, theophylline-stimulated B16 4A5 cells, 72 h
  inhibition at 300 µM: 77 ± 2.1%
B16 melanoma 4A5 cells; Mus musculus, 72 h
  IC50: 117 µM
Tyrosinase protein
  expression of tyrosinase protein (in words): suppressed tyrosinase protein expression in a concentration-dependent manner
TRP-2 mRNA; 30 µM
  TRP-2 mRNA/β-actin mRNA: 1.07 ± 0.30
TRP-2 mRNA; 100 µM
  TRP-2 mRNA/β-actin mRNA: 0.88 ± 0.25
Tyrosinase mRNA; 30 µM
  Tyrosinase mRNA/β-actin mRNA: 0.72 ± 0.10
[1]
  Residual ratio in aqueous solution: 82%
[2]
  viability at 72 h, 100 µM: 95.3%
  viability at 72 h, 1000 µM: 60.8%
  viability at 72 h, 3000 µM: 44.7%
[2]; 300 µM
  viability at 72 h, 300 µM: 83.9%
TRP-1 mRNA; 30 µM
  TRP-1 mRNA/β-actin mRNA: 0.67 ± 0.12
Tyrosinase from mushroom; Substrate: L-DOPA, 30 µM
  Inhibition (%) of mushroom tyrosinase: −5.7 ± 5.1%
Tyrosinase from mushroom; Substrate: L-DOPA, 100 µM
  Inhibition (%) of mushroom tyrosinase: −2.4 ± 4.2%
Tyrosinase from mushroom; Substrate: L-Tyrosine, 30 µM
  Inhibition (%) of mushroom tyrosinase: 1.4 ± 4.7%
Tyrosinase from mushroom; Substrate: L-Tyrosine, 100 µM
  Inhibition (%) of mushroom tyrosinase: −6.1 ± 0.6%

## CCCCCCCCCCOC1=C(OCC(O)CO)C(=O)O[C@@H]1[C@@H](O)CO (stereo partly shown) [compound 24, 3-O-decyl-2-O-(2,3-dihydroxypropyl)-AsA]
B16 melanoma 4A5 cells; [3]
  inhibition at 3 µM: -5.8 ± 6%
  inhibition at 10 µM: 20.9 ± 5.4%
  inhibition at 30 µM: 64.3 ± 3.8%
  inhibition at 100 µM: 103 ± 2.4%
B16 melanoma 4A5 cells; Mus musculus, 72 h
  IC50: 23.5 µM
[2]
  viability at 72 h, 3 µM: 92.5%
  viability at 72 h, 10 µM: 87.1%
  viability at 72 h, 30 µM: 68.5%
  viability at 72 h, 100 µM: 34.3%
Tyrosinase from mushroom; Substrate: L-DOPA, 10 µM
  Inhibition (%) of mushroom tyrosinase: 0.7 ± 3.8%
Tyrosinase from mushroom; Substrate: L-DOPA, 30 µM
  Inhibition (%) of mushroom tyrosinase: −5.3 ± 4.2%
Tyrosinase from mushroom; Substrate: L-Tyrosine, 10 µM
  Inhibition (%) of mushroom tyrosinase: −4.1 ± 5.3%
Tyrosinase from mushroom; Substrate: L-Tyrosine, 30 µM
  Inhibition (%) of mushroom tyrosinase: −3.1 ± 4.1%

## CCCCCCCCCCCOC1=C(OCC(O)CO)C(=O)O[C@@H]1[C@@H](O)CO (stereo partly shown) [compound 25, 2-O-(2,3-dihydroxypropyl)-3-O-undecyl-AsA]
B16 melanoma 4A5 cells; [3]
  inhibition at 3 µM: -5.1 ± 2.3%
  inhibition at 10 µM: 26.6 ± 3%
  inhibition at 30 µM: 85 ± 3.8%
  inhibition at 100 µM: 101 ± 10.1%
B16 melanoma 4A5 cells; Mus musculus, 72 h
  IC50: 18.1 µM
[2]
  viability at 72 h, 3 µM: 101%
  viability at 72 h, 10 µM: 85.8%
  viability at 72 h, 30 µM: 53.6%
  viability at 72 h, 100 µM: 24%
Tyrosinase from mushroom; Substrate: L-DOPA, 10 µM
  Inhibition (%) of mushroom tyrosinase: −10.2 ± 2.3%
Tyrosinase from mushroom; Substrate: L-DOPA, 30 µM
  Inhibition (%) of mushroom tyrosinase: −10.7 ± 3.8%
Tyrosinase from mushroom; Substrate: L-Tyrosine, 10 µM
  Inhibition (%) of mushroom tyrosinase: −8.0 ± 0.6%
Tyrosinase from mushroom; Substrate: L-Tyrosine, 30 µM
  Inhibition (%) of mushroom tyrosinase: −8.7 ± 1.5%

## CCCCCCCCCCCCOC1=C(OCC(O)CO)C(=O)O[C@@H]1[C@@H](O)CO (stereo partly shown) [compound 26, 2-O-(2,3-dihydroxypropyl)-3-O-dodecyl-AsA]
B16 melanoma 4A5 cells; [3]
  inhibition at 3 µM: 14.1 ± 8.5%
  inhibition at 10 µM: 46 ± 3%
  inhibition at 30 µM: 96.2 ± 2.8%
  inhibition at 100 µM: 89.6 ± 24.4%
B16 melanoma 4A5 cells; Mus musculus, 72 h
  IC50: 12.1 µM
[2]
  viability at 72 h, 3 µM: 99.8%
  viability at 72 h, 10 µM: 87.3%
  viability at 72 h, 30 µM: 45.5%
  viability at 72 h, 100 µM: 24.3%
Tyrosinase from mushroom; Substrate: L-DOPA, 10 µM
  Inhibition (%) of mushroom tyrosinase: −6.4 ± 3.1%
Tyrosinase from mushroom; Substrate: L-DOPA, 30 µM
  Inhibition (%) of mushroom tyrosinase: −6.6 ± 8.7%
Tyrosinase from mushroom; Substrate: L-Tyrosine, 10 µM
  Inhibition (%) of mushroom tyrosinase: −2.2 ± 6.4%
Tyrosinase from mushroom; Substrate: L-Tyrosine, 30 µM
  Inhibition (%) of mushroom tyrosinase: −0.5 ± 4.3%

## CCCCCCCCCCCCCOC1=C(OCC(O)CO)C(=O)O[C@@H]1[C@@H](O)CO (stereo partly shown) [compound 27, 2-O-(2,3-dihydroxypropyl)-3-O-tridecyl-AsA]
B16 melanoma 4A5 cells; [3]
  inhibition at 3 µM: 20.1 ± 5.7%
  inhibition at 10 µM: 44.2 ± 3.9%
  inhibition at 30 µM: 96.6 ± 3%
  inhibition at 100 µM: 113 ± 10.1%
B16 melanoma 4A5 cells; Mus musculus, 72 h
  IC50: 11.7 µM
[2]
  viability at 72 h, 3 µM: 105%
  viability at 72 h, 10 µM: 84.3%
  viability at 72 h, 30 µM: 40.2%
  viability at 72 h, 100 µM: 21%
Tyrosinase from mushroom; Substrate: L-DOPA, 10 µM
  Inhibition (%) of mushroom tyrosinase: −2.0 ± 3.3%
Tyrosinase from mushroom; Substrate: L-DOPA, 30 µM
  Inhibition (%) of mushroom tyrosinase: −3.2 ± 2.7%
Tyrosinase from mushroom; Substrate: L-Tyrosine, 10 µM
  Inhibition (%) of mushroom tyrosinase: −3.3 ± 8.1%
Tyrosinase from mushroom; Substrate: L-Tyrosine, 30 µM
  Inhibition (%) of mushroom tyrosinase: −5.4 ± 1.9%

## CCCCCCCCCCCCCCOC1=C(OCC(O)CO)C(=O)O[C@@H]1[C@@H](O)CO (stereo partly shown) [compound 28, 2-O-(2,3-dihydroxypropyl)-3-O-tetradecyl-AsA]
B16 melanoma 4A5 cells; [3]
  inhibition at 3 µM: 32.8 ± 7.2%
  inhibition at 10 µM: 75.7 ± 3.9%
  inhibition at 30 µM: 95.9 ± 8.4%
  inhibition at 100 µM: 95.2 ± 20.7%
B16 melanoma 4A5 cells; Mus musculus, 72 h
  IC50: 5 µM
B16 melanoma 4A5 cells; ratio of IC50 values vs arbutin
  potency relative to arbutin (melanogenesis inhibition): more than 166 fold
TRP-2 mRNA; 3 µM
  TRP-2 mRNA/β-actin mRNA: 0.43 ± 0.11
Tyrosinase mRNA; 3 µM
  Tyrosinase mRNA/β-actin mRNA: 0.54 ± 0.03
[2]
  viability at 72 h, 3 µM: 85.1%
  viability at 72 h, 10 µM: 62.6%
  viability at 72 h, 30 µM: 23%
  viability at 72 h, 100 µM: 18.1%
TRP-1 mRNA; 3 µM
  TRP-1 mRNA/β-actin mRNA: 0.88 ± 0.20
TRP-1 mRNA; 10 µM
  TRP-1 mRNA/β-actin mRNA: 0.83 ± 0.27
Tyrosinase from mushroom; Substrate: L-DOPA, 10 µM
  Inhibition (%) of mushroom tyrosinase: −5.7 ± 9.5%
Tyrosinase from mushroom; Substrate: L-DOPA, 30 µM
  Inhibition (%) of mushroom tyrosinase: −8.1 ± 5.2%
Tyrosinase from mushroom; Substrate: L-Tyrosine, 10 µM
  Inhibition (%) of mushroom tyrosinase: −4.4 ± 4.6%
Tyrosinase from mushroom; Substrate: L-Tyrosine, 30 µM
  Inhibition (%) of mushroom tyrosinase: −8.4 ± 1.0%
